# Experimental data published in US10519177B2, “Heterocyclic compounds and uses thereof” (Plexxikon Inc., priority 2013, dated 2019).
# Molecular target: BRD4-BD1 (44-164) (Homo sapiens (Human), UniProt O60885)
# Experiment: Alphascreen binding assay BRD4-BD1
# Conditions: BRD4(1) H4; read-out: Biochemical activity (IC50 μM) BRD4(1) H4
# Summary of the method: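 In this competition format, compounds displace a biotinylated tetra-acetyl H4 peptide from E. coli-expressed human BRD4 bromodomain constructs captured on nickel chelate beads. The reaction runs at pH 7.5 with 2 mM DTT and detergent for 1 h at room temperature before a 30 min bead step.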
row,Compound,IC50 [µM]
1,"Cc1noc(C)c1-c1cnc2c(C#CCO)cn(S(=O)(=O)C3CCCC3)c2c1 [P-0156, 3-[1-cyclopentylsulfonyl-6-(3,5-dimethylisoxazol-4-yl)pyrrolo[3,2-b]pyridin-3-yl]prop-2-yn-1-ol]",< 1
2,"Cc1noc(C)c1-c1cnc2ccn(S(=O)(=O)C3CCCC3)c2c1 [P-0037, 4-(1-cyclopentyl-sulfonylpyrrolo[3,2-b]pyridin-6-yl)-3,5-dimethyl-isoxazole]",< 1
3,"Cc1ccc(S(=O)(=O)n2ccc3ncc(-c4c(C)noc4C)cc32)s1 [P-0062, 3,5-dimethyl-4-[1-[(5-methyl-2-thienyl)sulfonyl]pyrrolo[3,2-b]pyridin-6-yl]isoxazole]",< 1
4,"Cc1noc(C)c1-c1cnc2c(-c3cnn(C)c3)cn(CC3(F)CCCCC3)c2c1 [P-0212, 4-[1-[(1-fluorocyclohexyl)methyl]-3-(1-methylpyrazol-4-yl)pyrrolo[3,2-b]pyridin-6-yl]-3,5-dimethyl-isoxazole]",< 1
5,"COc1ncc(F)cc1C(OC)c1c[nH]c2ncc(-c3c(C)noc3C)cc12 (stereo not shown) [P-0011, 4-[3-[(5-fluoro-2-methoxy-3-pyridyl)-methoxy-methyl]-1H-pyrrolo[2,3-b]pyridin-5-yl]-3,5-dimethyl-isoxazole]",< 1
6,"CCc1[nH]c2ncc(-c3c(C)noc3C)cc2c1C(OC)C1CCC(F)(F)CC1 (stereo not shown) [P-0045, 4-[3-[(4,4-difluorocyclohexyl)-methoxy-methyl]-2-ethyl-1H-pyrrolo[2,3-b]pyridin-5-yl]-3,5-dimethyl-isoxazole]",< 1
7,"Cc1noc(C)c1-c1cnc2c(-c3cnn(C)c3)cn(S(=O)(=O)c3ccc(F)cc3)c2c1 [P-0123, 4-[1-(4-fluorophenyl)sulfonyl-3-(1-methyl-pyrazol-4-yl)pyrrolo[3,2-b]pyridin-6-yl]-3,5-dimethyl-isoxazole]",< 1
8,"Cc1noc(C)c1-c1cnc2c(-c3cnn(C(F)F)c3)cn(S(=O)(=O)C3CCCC3)c2c1 [P-0133, 4-[1-cyclopentylsulfonyl-3-[1-(difluoromethyl)pyrazol-4-yl]pyrrolo[3,2-b]pyridin-6-yl]-3,5-dimethyl-isoxazole]",< 1
9,"Cc1noc(C)c1-c1cnc2[nH]cc(C(O)c3c(F)cccc3Cl)c2c1 (stereo not shown) [P-0021, (2-chloro-6-fluoro-phenyl)-[5-(3,5-dimethylisoxazol-4-yl)-1H-pyrrolo[2,3-b]pyridin-3-yl]methanol]",< 1
10,"Cc1noc(C)c1-c1cnc2[nH]cc(C(c3ccc(F)cc3)(C3CC3)C3CC3)c2c1 [P-0085, 4-[3-[dicyclopropyl-(4-fluorophenyl)methyl]-1H-pyrrolo[2,3-b]pyridin-5-yl]-3,5-dimethyl-isoxazole]",< 1
11,"COCCn1cc(-c2cn(C(C)c3ccccc3)c3cc(-c4c(C)noc4C)cnc23)cn1 (stereo not shown) [P-0203, 4-[3-[1-(2-methoxyethyl)pyrazol-4-yl]-1-(1-phenyl-ethyl)pyrrolo[3,2-b]pyridin-6-yl]-3,5-dimethyl-isoxazole]",< 1
12,"Cc1noc(C)c1-c1cnc2c(-c3cnc(C4CC4)nc3)cn(S(=O)(=O)C3CCCC3)c2c1 [P-0103, 4-[1-cyclopentyl-sulfonyl-3-(2-cyclopropylpyrimidin-5-yl)pyrrolo[3,2-b]pyridin-6-yl]-3,5-dimethyl-isoxazole]",< 1
13,"Cc1noc(C)c1-c1cnc2[nH]cc(Cc3ccccc3Cl)c2c1 [P-0026, 4-[3-[(2-chlorophenyl)methyl]-1H-pyrrolo[2,3-b]pyridin-5-yl]-3,5-dimethyl-isoxazole]",< 1
14,"Cc1noc(C)c1-c1cnc2c(-c3cnn(C(F)F)c3)cn(S(=O)(=O)c3ccccc3F)c2c1 [P-0132, 4-[3-[1-(difluoromethyl)pyrazol-4-yl]-1-(2-fluorophenyl)sulfonyl-pyrrolo[3,2-b]pyridin-6-yl]-3,5-dimethyl-isoxazole]",< 1
15,"COc1ncc(F)cc1Cc1c[nH]c2ncc(-c3c(C)noc3C)cc12 [P-0028, 4-[3-[(5-fluoro-2-methoxy-3-pyridyl)methyl)-1H-pyrrolo[2,3-b]pyridin-5-yl]-3,5-dimethyl-isoxazole]",< 1
16,"Cc1noc(C)c1-c1cnc2[nH]c(-c3ccc(F)cc3)c(Cc3cccnc3)c2c1 [P-0007, 4-[2-(4-fluorophenyl)-3-(3-pyridylmethyl)-1H-pyrrolo[2,3-b]pyridin-5-yl]-3,5-dimethyl-isoxazole]",< 1
17,"Cc1noc(C)c1-c1cnc2c(-c3cnn(C)c3)cn(Cc3c(Cl)cccc3Cl)c2c1 [P-0189, 4-[1-[(2,6-dichlorophenyl)methyl]-3-(1-methylpyrazol-4-yl)pyrrolo[3,2-b]pyridin-6-yl]-3,5-dimethyl-isoxazole]",< 1
18,"Cc1noc(C)c1-c1cnc2[nH]cc(P(=O)(c3ccccc3)c3ccccc3)c2c1 [P-0166, 4-(3-diphenylphosphoryl-1H-pyrrolo[2,3-b]pyridin-5-yl)-3,5-dimethyl-isoxazole]",< 1
19,"Cc1noc(C)c1-c1cnc2[nH]cc(Cc3ccccc3OC(F)F)c2c1 [P-0047, 4-[3-[[2-(difluoro-methoxy)phenyl]methyl]-1H-pyrrolo[2,3-b]pyridin-5-yl]-3,5-dimethyl-isoxazole]",< 1

row,Compound,IC50 [µM]
1,"CCn1cc(-c2cn(S(=O)(=O)c3ccccc3)c3cc(-c4c(C)noc4C)cnc23)cn1 [P-0124, 4-[1-(benzenesulfonyl)-3-(1-ethylpyrazol-4-yl)pyrrolo[3,2-b]pyridin-6-yl]-3,5-dimethyl-isoxazole]",< 1
2,"Cc1noc(C)c1-c1cnc2[nH]cc(C(C)(C)c3ccc(F)cc3)c2c1 [P-0063, 4-[3-[1-(4-fluorophenyl)-1-methyl-ethyl]-1H-pyrrolo[2,3-b]pyridin-5-yl]-3,5-dimethyl-isoxazole]",< 1
3,"Cc1noc(C)c1-c1cnc2c(-c3cccnc3)cn(S(=O)(=O)c3ccccc3)c2c1 [P-0084, 4-[1-(benzenesulfonyl)-3-(3-pyridyl)pyrrolo[3,2-b]pyridin-6-yl]-3,5-dimethyl-isoxazole]",< 1
4,"CCCCS(=O)(=O)n1ccc2ncc(-c3c(C)noc3C)cc21 [P-0036, 4-(1-butylsulfonylpyrrolo[3,2-b]pyridin-6-yl)-3,5-dimethyl-isoxazole]",< 1
5,"Cc1noc(C)c1-c1cnc2c(c1)c(S(=O)(=O)c1ccccc1)cn2-c1cnn(C)c1 [P-0185, 4-[3-(benzenesulfonyl)-1-(1-methylpyrazol-4-yl)pyrrolo[2,3-b]pyridin-5-yl]-3,5-dimethyl-isoxazole]",< 1
6,"COc1ncc(F)cc1C(O)c1c[nH]c2ncc(-c3c(C)noc3C)cc12 (stereo not shown) [P-0022, [5-(3,5-dimethylisoxazol-4-yl)-1H-pyrrolo[2,3-b]pyridin-3-yl]-(5-fluoro-2-methoxy-3-pyridyl)methanol]",< 1
7,"C=CCn1cc(-c2cn(S(=O)(=O)CCC)c3cc(-c4c(C)noc4C)cnc23)cn1 [P-0137, 4-[3-(1-allylpyrazol-4-yl)-1-propylsulfonyl-pyrrolo[3,2-b]pyridin-6-yl]-3,5-dimethyl-isoxazole]",< 1
8,"Cc1noc(C)c1-c1cnc2[nH]cc([S+]([O-])c3cccc(F)c3)c2c1 (stereo not shown) [P-0142, 4-[3-(3-fluorophenyl)sulfinyl-1H-pyrrolo[2,3-b]pyridin-5-yl]-3,5-dimethyl-isoxazole]",< 1
9,"Cc1noc(C)c1-c1cnc2ccn(S(=O)(=O)C3CCCCC3)c2c1 [P-0066, 4-(1-cyclohexylsulfonyl-pyrrolo[3,2-b]pyridin-6-yl)-3,5-dimethyl-isoxazole]",< 1
10,"Cc1noc(C)c1-c1cnc2c(-c3cnn(C)c3)cn(C(C(=O)NC3CC3)c3ccccc3)c2c1 (stereo not shown) [P-0207, N-cyclopropyl-2-[6-(3,5-dimethylisoxazol-4-yl)-3-(1-methylpyrazol-4-yl)pyrrolo[3,2-b]pyridin-1-yl]-2-phenyl-acetamide]",< 1
11,"CCOC(=O)C(c1ccccc1)n1cc(-c2cnn(C)c2)c2ncc(-c3c(C)noc3C)cc21 (stereo not shown) [P-0186, ethyl 2-[6-(3,5-dimethylisoxazol-4-yl)-3-(1-methylpyrazol-4-yl)pyrrolo[3,2-b]pyridin-1-yl]-2-phenyl-acetate]",< 1
12,"Cc1noc(C)c1-c1cnc2c(-c3cnn(C)c3)cn(Cc3ccccc3F)c2c1 [P-0172, 4-[1-[(2-fluorophenyl)methyl]-3-(1-methylpyrazol-4-yl)pyrrolo[3,2-b]pyridin-6-yl]-3,5-dimethyl-isoxazole]",< 1
13,"Cc1noc(C)c1-c1cnc2[nH]cc(C(O)c3cccc4c3OC(F)(F)O4)c2c1 (stereo not shown) [P-0041, (2,2-difluoro-1,3-benzodioxol-4-yl)-[5-(3,5-dimethylisoxazol-4-yl)-1H-pyrrolo[2,3-b]pyridin-3-yl]methanol]",< 1
14,"Cc1noc(C)c1-c1cnc2c(-c3cnn(C)c3)cn(Cc3ccccn3)c2c1 [P-0198, 3,5-dimethyl-4-[3-(1-methylpyrazol-4-yl)-1-(2-pyridylmethyl)pyrrolo[3,2-b]pyridin-6-yl]isoxazole]",< 1
15,"Cc1noc(C)c1-c1cnc2c(-c3cnn(C(F)F)c3)cn(S(=O)(=O)C3CCC3)c2c1 [P-0134, 4-[1-cyclobutyl-sulfonyl-3-[1-(difluoro-methyl)pyrazol-4-yl]pyrrolo[3,2-b]pyridin-6-yl]-3,5-dimethyl-isoxazole]",< 1
16,"Cc1noc(C)c1-c1cnc2[nH]cc(Cc3cccc4c3OC(F)(F)O4)c2c1 [P-0048, 4-[3-[(2,2-difluoro-1,3-benzodioxol-4-yl)methyl]-1H-pyrrolo[2,3-b]pyridin-5-yl]-3,5-dimethyl-isoxazole]",< 1
17,"CCc1[nH]c2ncc(-c3c(C)noc3C)cc2c1Cc1ccccc1Cl [P-0049, 4-[3-[(2-chlorophenyl)methyl]-2-ethyl-1H-pyrrolo[2,3-b]pyridin-5-yl]-3,5-dimethyl-isoxazole]",< 1
18,"Cc1noc(C)c1-c1cnc2c(-c3cn[nH]c3)cn(S(=O)(=O)C3CCCC3)c2c1 [P-0167, 4-[1-cyclopentylsulfonyl-3-(1H-pyrazol-4-yl)pyrrolo[3,2-b]pyridin-6-yl]-3,5-dimethyl-isoxazole]",< 1
